Test [1] deals with T1, HIV-1 myrMA (Human immunodeficiency virus type 1 group M subtype B, UniProt P12493). The conditions noted are these: for binding to myrMA (changes in NMR spectra upon titration): 1H-15N HSQC titration; for triggering of myristate exposure: NMR; for Kd: read-out: dissociation constant (Kd), fit to 1:1 binding isotherms, 35° C., pH 5.5. As for the experimental part: (§1) HIV-1 myrMA and myr(−)MA proteins were prepared as described (19, 37). Phosphoinositides PI(4,5)P2, di-C4-PI(4,5)P2, di-C8-PI(4,5)P2, di-C4-PI, di-C4-PI(3)P, di-C4-PI(4)P, di-C4-PI(5)P, di-C4-PI(3,5)P2, di-C8-PI(3,4,5)P2, and di-C4-PI (Echelon, Salt Lake City, Utah) and di-C4-phosphatidylcholine (Avanti Polar Lipids) were obtained commercially and used without further purification. Samples for all NMR experiments were prepared in 50 mM sodium phosphate at pH 5.5 and 5 mM DTT.
(§2) NMR data [Bruker DRX (Billerica, Mass.); 800 MHz ^1H and DMX 600 MHz ^1H spectrometers equipped with cryoprobes] were obtained from a combination of 2D, 3D, and 4D NOESY data, for combinations of natural abundance; ^15N-, ^15N-, and ^13C-labeled protein samples (35° C.). Protein signals were assigned as described (19, 37). Phosphoinositide signals were assigned from 2D heteronuclear multiple-quantum coherence (HMQC), heteronuclear multiple bond correlation (HMBC), NOESY, total correlation spectroscopy (TOCSY), and COSY data (the ^1H and ^13C NMR signals of the 1′- and 2′-acyl chains were resolved in the 2D spectra), and intra- and intermolecular ^1H-^1H NOEs were assigned from 2D (^1H-^1H), 3D (^13C-, ^15N-, and ^13C-edited/^12C-double-half-filtered), and 4D ([…] and ^13C/^13C-edited) NOESY data (39, 40). Binding isotherms from ^1H-^15N NMR HSQC titration experiments were calculated with ORIGIN 7.0 software (Microcal Software, Northampton, Mass.).

Test [2] addresses T1, HIV-1 myrMA. The test is classed as binding. The conditions noted are these: for Kd: fit to 1:1 binding isotherms, read-out: dissociation constant (Kd). Further details: mediated by the matrix (MA) domain of Gag, a 132-residue polypeptide containing an N-terminal myristyl group; made in house. As for the experimental part:
as §1, §2

The text below walks through data of patent US8318419B2, “Antiviral screening method to identify inhibitors of phosphatidylinositol 4,5-bisphosphate [PI(4,5)P2] binding to the HIV gag matrix (MA) protein” (priority 2007, dated 2012).

Values joined by “and” are separate entries in the source; they are usually repeats but may differ in a detail not shown here. Equal entries are not always repeated. Where two headings read alike, the source gives them in different places.

PI(4)P: in test [1], the “binding to myrMA (changes in NMR spectra upon titration)” value was “do not bind MA with significant affinity”. Also, in test [1] (myrMA), the “triggering of myristate exposure” value is given as “do not bind MA with significant affinity or trigger myristate exposure”. `CCCC(=O)OCC(COP(=O)(O)OC1C(O)C(O)C(OP(=O)(O)O)C(O)C1O)OC(=O)CCC` (stereo not drawn) [di-C4-PI(4)P]: the “binding to myrMA (changes in NMR spectra upon titration)” value in test [1] was “No detectable changes”. As to `CCCC(=O)OCC(COP(=O)(O)OC1C(O)C(OP(=O)(O)O)C(O)C(OP(=O)(O)O)C1O)OC(=O)CCC` (stereo not drawn) [di-C4-PI(3,5)P2], the “binding to myrMA (changes in NMR spectra upon titration)” value in test [1] is “does not bind”. Further, the “triggering of myristate exposure” value in test [1] (myrMA) is given as “does not bind myrMA or trigger myristate exposure”.

Consider `CCCC(=O)OC[C@H](COP(=O)(O)O[C@@H]1[C@H](O)[C@H](O)[C@@H](OP(=O)(O)O)[C@H](OP(=O)(O)O)[C@H]1O)OC(=O)CCC` [di-C4-PI(4,5)P2, di-butyryl-PI(4,5)P2], for which, in test [1] (myrMA), the “triggering of myristate exposure” value was “causes extrusion of the myristyl group” and the Kd is 150 ± 30 µM. In test [1] (myrMA, upon addition of the lipid), the “chemical-shift changes ΔδHN of group 1 residues” value was 0.1-0.8 ppm. For the same compound, the Kd in test [2] came to 240 ± 60 µM. In the case of `CCCCCCCC(=O)OC[C@H](COP(=O)(O)O[C@@H]1[C@H](O)[C@H](O)[C@@H](OP(=O)(O)O)[C@H](OP(=O)(O)O)[C@H]1O)OC(=O)CCCCCCC` [di-C8-PI(4,5)P2, di-octyl-PI(4,5)P2], in test [2], the “affinity for myr(−)MA relative to di-C4-PI(4,5)P2” value is 3 fold and > 3 fold; the equilibrium dissociation constant (Kd) was 83 ± 4 µM.

As for `CCCC(=O)OCC(COP(=O)(O)OC1C(O)C(O)C(O)C(OP(=O)(O)O)C1O)OC(=O)CCC` (stereo not drawn) [di-C4-PI(5)P], the “binding to myrMA (changes in NMR spectra upon titration)” value in test [1] is “No detectable changes”. Still for that read-out and setting: next, `CCCC(=O)OC[C@H](COP(=O)(O)OC1[C@H](O)[C@H](O)C(O)[C@H](O)[C@H]1O)OC(=O)CCC` (stereo partly drawn) [di-C4-PI]: “No detectable changes”; PI(5)P: “do not bind MA with significant affinity”; `CCCC(=O)OC[C@H](COP(=O)(O)O[C@@H]1[C@H](O)[C@H](OP(=O)(O)O)[C@@H](O)[C@H](O)[C@H]1O)OC(=O)CCC` [di-C4-PI(3)P]: “No detectable changes”. For “phosphatidylinositol (PI)4,5-bisphosphate [PI(4,5)P2]”, in test [1], the “binding to myrMA (changes in NMR spectra upon titration)” value is “binds directly”. Moreover, in test [1] (myrMA), the “triggering of myristate exposure” value is on record as “triggers myristate exposure”.

As to `CCCC(=O)OC[C@H](COP(=O)([O-])OCC[N+](C)(C)C)OC(=O)CCC` [di-C4-phosphatidylcholine], in test [1], the “binding to myrMA (changes in NMR spectra upon titration)” value was “does not bind”.

Take `CCCC(=O)OC[C@H](COP(=O)(O)O[C@H]1[C@H](O)[C@@H](OP(=O)(O)O)[C@H](OP(=O)(O)O)[C@@H](OP(=O)(O)O)[C@H]1O)OC(=O)CCC` [di-C4-PI(3,4,5)P3]: in test [1] (myrMA), the “triggering of myristate exposure” value was “triggers myristate exposure” and the Kd is 81 ± 18 µM. As for PI(3,5)P2, the “binding to myrMA (changes in NMR spectra upon titration)” value in test [1] is recorded as “do not bind MA with significant affinity”. In test [1] (myrMA), the “triggering of myristate exposure” value is on record as “do not bind MA with significant affinity or trigger myristate exposure”. For PI(3)P, the “binding to myrMA (changes in NMR spectra upon titration)” value in test [1] is on record as “do not bind MA with significant affinity”. In addition, the “triggering of myristate exposure” value in test [1] (myrMA) is “do not bind MA with significant affinity or trigger myristate exposure”.
